Patent US5455242A, “Carboxyalkyl tricyclic derivatives useful as inhibitors of enkephalinase and ace” (Merrell Dow Pharmaceuticals Inc., priority 1993, dated 1995)

Molecular target: T1, Enkephalinase (Rattus norvegicus, UniProt P07861)
T1 construct: Enkephalinase is partially purified from rat kidney; from tissue; host or cells: rat kidney (microvilli fraction)
T1 sequence (P07861 1-750): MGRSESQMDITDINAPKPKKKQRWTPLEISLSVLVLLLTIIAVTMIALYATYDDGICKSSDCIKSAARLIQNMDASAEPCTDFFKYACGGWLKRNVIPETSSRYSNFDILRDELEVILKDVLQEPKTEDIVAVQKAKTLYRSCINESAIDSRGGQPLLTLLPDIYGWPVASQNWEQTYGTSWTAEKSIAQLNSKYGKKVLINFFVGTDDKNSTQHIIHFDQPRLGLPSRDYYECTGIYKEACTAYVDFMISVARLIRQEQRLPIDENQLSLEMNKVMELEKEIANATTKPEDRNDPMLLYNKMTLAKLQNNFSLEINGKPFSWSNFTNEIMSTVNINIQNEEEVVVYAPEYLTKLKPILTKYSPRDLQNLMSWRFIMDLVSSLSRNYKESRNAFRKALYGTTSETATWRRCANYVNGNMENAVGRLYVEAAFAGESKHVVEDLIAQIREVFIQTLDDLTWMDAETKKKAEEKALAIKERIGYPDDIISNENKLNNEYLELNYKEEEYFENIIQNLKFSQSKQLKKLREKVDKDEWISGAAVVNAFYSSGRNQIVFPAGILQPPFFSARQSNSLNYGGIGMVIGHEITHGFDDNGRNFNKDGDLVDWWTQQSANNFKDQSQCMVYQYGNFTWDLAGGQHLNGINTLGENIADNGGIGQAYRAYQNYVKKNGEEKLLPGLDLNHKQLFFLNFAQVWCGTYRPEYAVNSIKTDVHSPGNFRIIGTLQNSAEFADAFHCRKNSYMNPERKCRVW
Assay: Enkephalinase inhibition (fluorometric assay, enzyme partially purified from rat kidney)
Type: biochemical
Conditions: 50 mM HEPES pH 7.4, 25° C., 12 μM dansyl-D-AlaGly(p-nitro)PheGly
Source text: Enkephalinase is partially purified from rat kidney. The enzyme is extracted from the microvilli fraction by using Triton X-100 according to the method of Malfroy and Schwartz [J. Biol. Chem. 259, 14365-14370 (1984)]or by using a proteolytic treatment according to the method of Almenoff and Orlowski [Biochem. 22, 590-599 (1983)]. The enzyme is further purified by anion exchange chromatography (Mono Q™ column, Pharmacia) using a Pharmacia FPLC system. The enzyme activity may be measured by the fluorometric methods of Florentin et al. [Anal. Biochem. 141, 62-69 (1984)]or of Almenoff and Orlowski [J. Neurochemistry 42, 151-157 (1984)]. The enzyme is assayed in 50 mM HEPES buffer (pH 7.4) in a 3.0 mL reaction volume containing 12 μM of the substrate dansyl-D-AlaGly(p-nitro)PheGly(Km =40 μM) at 25° C. The substrate (and inhibitor) is added from a concentrated stock solution in DMSO (up to 0.1 mL DMSO final volume). The enzyme in a small volume (approximately 0.1 μg of FPLC purified protein) is added to initiate the reaction and the rate of fluorecense increase is recorded continuously using a fluorometer (excitation at 339 nm, emission at 562 nm).

Ki: 5 nM
Compound: O=C(O)CC(Cc1ccccc1)C(=O)N[C@H]1Cc2ccccc2[C@H]2CCC[C@@H](C(=O)O)N2C1=O (stereo partly drawn) [101,287, [4S-[4α, 7α(R*), 12bβ]]-7-[(1-Oxo-2-carboxymethyl-3-phenylpropyl)amino]-1,2,3,4,6,7,8,12b-octahydro-6-oxopyrido[2,1-a][2]benzazepine-4-carboxylic acid]
